Here are results for 1 molecule from ChEMBL document CHEMBL1150725, “Cytotoxic and antimicrobial alkaloids from the Fijian sponge Xestospongia caycedoi” (J Nat Prod, 1987).

In one experiment the test system is Staphylococcus aureus. The experiment in a line: Antimicrobial activity against Staphylococcus aureus at 100 ug/disk. Particulars: read-out: IZ. It is filed as functional.
In a further experiment the test system is L1210. The experiment in a line: Cytotoxicity against mouse L1210 cells. It is filed as functional, cell-based.

The structures appear in SMILES notation. Values after ≈ are worked out from the molar mass of the structure shown.

Regarding `COC1=C(C)C(=O)c2ccnc(CO)c2C1=O` [RENIEROL], the zone of inhibition at 100 µg/disc with Staphylococcus aureus came out at 10 mm. In the experiment with L1210, the IC50 was 3 µg/mL (≈ 12.9 µM).
